Assay results as given in patent US20030022158A1, “Peptides from the TT virus sequence and monospecific antibodies binding to the TT virus” (priority 1999, published 2003).

Key:
[1] = system: human IgG antibodies in human serum samples; experiment: EIA of human antibody reactivities to overlapping synthetic peptides of TTV ORF1 and ORF2 (Tables 2 and 3); type: binding; settings: for optical density (OD) at 405 nm: serum diluted 1:100, OD over 0.500 considered positive; for human reactivity to peptide (reactive peptides within ORF1): tested human sera, EIA
From the text: Overlapping peptides (18 amino acids in length containing an 8 amino acid overlap) corresponding to regions of the ORFI and ORF2 of TTV (TABLE 1; Genebank accession no AB008394) were produced by a multiple peptide synthesizer (Syro, Syntex, Germany) using standard Fmoc chemistry (Sallberg et al., Immunology Letters, 30:59 68 (1991), herein expressly incorporated by reference in its entirety).
(§1) The EIAs used to identify which peptides interacted with human sera followed protocols known in the art. (See Zhang et al., J Gen Virol, 78:2735-2746 (1997), herein expressly incorporated by reference in its entirety). Briefly, microplates (Nunc, Denmark) were coated for 48 hours with synthetic peptides at a concentration of 10 μg/ml in 0.05M sodium carbonate buffer pH 9.6. After blocking for 2 hours at room temperature with phosphate buffered saline containing 1% bovine serum albumin, 2% goat serum and 0.05% Tween 20 (dilution buffer) the plates were incubated with human sera diluted 1:100 in dilution buffer. Bound human IgG was detected by incubation with anti-human IgG antibodies conjugated to alkaline phosphatase (Sigma Chemicals, St. Louis, Mo.). The plates were developed by the addition of […] (Sigma) and the optical densities were determined at 405 nm.

[2] = system: human antibodies in human serum samples; experiment: EIA reactivities of three human serum samples with deletion and alanine substitution analogues of SEQ ID NO: 1 (Table 6); type: binding; settings: positive = more than 50% of the reactivity of the original peptide
Protocol: as §1
The reactivity to the TATTTTYAYPGTNRPPV (SEQ ID NO: 1) peptide was further characterized by mapping the reactivity of deletion and substitution peptide analogues.

[3] = human serum sample 1, negative for TTV DNA by PCR
[4] = human serum sample 2, negative for TTV DNA by PCR
[5] = human serum sample 3, negative for TTV DNA by PCR
[6] = human serum sample 4, negative for TTV DNA by PCR
[7] = human serum sample 5, negative for TTV DNA by PCR
[8] = human serum sample 6, negative for TTV DNA by PCR
[9] = human serum sample 7, negative for TTV DNA by PCR
[10] = human serum sample 9, positive for TTV DNA by PCR
[11] = human serum sample 11, negative for TTV DNA by PCR
[12] = human serum sample 18, positive for TTV DNA by PCR
[13] = human serum sample 36, positive for TTV DNA by PCR
[14] = human serum sample 48, positive for TTV DNA by PCR
[15] = human serum sample 98, positive for TTV DNA by PCR
[16] = human serum sample 110, positive for TTV DNA by PCR
[17] = human serum sample 155, positive for TTV DNA by PCR
[18] = human serum sample 157, positive for TTV DNA by PCR

Row | Sequence | optical density (OD) at 405 nm [1, 3] [OD] | optical density (OD) at 405 nm [1, 4] [OD] | optical density (OD) at 405 nm [1, 5] [OD] | optical density (OD) at 405 nm [1, 6] [OD] | optical density (OD) at 405 nm [1, 7] [OD] | optical density (OD) at 405 nm [1, 8] [OD] | optical density (OD) at 405 nm [1, 9] [OD] | optical density (OD) at 405 nm [1, 10] [OD] | optical density (OD) at 405 nm [1, 11] [OD] | optical density (OD) at 405 nm [1, 12] [OD] | optical density (OD) at 405 nm [1, 13] [OD] | optical density (OD) at 405 nm [1, 14] [OD] | optical density (OD) at 405 nm [1, 15] [OD] | optical density (OD) at 405 nm [1, 16] [OD] | optical density (OD) at 405 nm [1, 17] [OD] | optical density (OD) at 405 nm [1, 18] [OD] | human reactivity to peptide (reactive peptides within ORF1) [1] | OD at 405 nm, reactivity of human serum sample P4 [2] [OD] | OD at 405 nm, reactivity of human serum sample P7 [2] [OD] | OD at 405 nm, reactivity of human serum sample P36 [2] [OD]
1 | DQNIHMNARLLIRSPFT (Peptide Immunogen) [compound 50, overlapping synthetic peptide of TTV ORF1] | 0.07 | 0.09 | 0.08 | 0.09 | 0.08 | 0.86 | 0.29 | 0.08 | 0.18 | 0.07 | 0.07 | 0.07 | 0.10 | 0.20 | 0.63 | 0.46 | Reactive | 0.836 | 1.769 | 0.850
2 | GLYSSIWLSPGRSYFET (Peptide Immunogen) [compound 42, overlapping synthetic peptide of TTV ORF1] | 0.08 | 0.11 | 0.09 | 0.10 | 0.17 | 0.23 | 0.11 | 0.27 | 0.19 | 0.12 | 0.10 | 0.09 | 0.16 | 0.42 | 0.35 | 1.24 | Reactive | 0.135 | 0.242 | 0.076
3 | LIRSPFTDPQLLVHTDP (Peptide Immunogen) [compound 51, overlapping synthetic peptide of TTV ORF1] | 0.06 | 0.09 | 0.08 | 0.10 | 0.12 | 0.24 | 0.13 | 0.07 | 0.13 | 0.07 | 0.08 | 0.08 | 0.11 | 0.09 | 0.24 | 0.78 | Reactive | 0.899 | 1.697 | 0.903
4 | PDEKSQREILLNKIASY (Peptide Immunogen) [compound 29, overlapping synthetic peptide of TTV ORF1] | 0.42 | 0.36 | 0.45 | 0.53 | 0.22 | 0.95 | 0.29 | 0.21 | 0.14 | 0.11 | 0.09 | 0.10 | 0.09 | 0.25 | 0.59 | 0.62 | Reactive | 0.142 | 0.105 | 0.076
